Test results taken from patent US20130267544A1, “Use of LP-PLA2 Inhibitors in the Treatment and Prevention of Eye Diseases” (priority 2010, published 2013).
Entries after “also recorded” stand apart in the source; their conditions may differ.

Assays:
[1] = test system: DMHC pigs (blood-brain barrier); test: IgG leak from brain blood vessels (BBB permeability) in diabetic/hypercholesterolemic pigs; assay type: in vivo, pig; conditions: 10 mg/kg/day orally for 24 weeks
Experimental: (§1) Yorkshire domestic farm pigs (˜25-35 kg; Archer Farms) were induced for diabetes with a single intravenous injection of 125 mg/kg streptozotocin (Mohler et al., 2008). Blood glucose and cholesterol were closely monitored. Three days after diabetes induction, a hyperlipidemic diet was used to achieve hypercholesterolemia with serum cholesterol concentrations clamped between 400 and 800 mg/dl. Because pigs have a variable serum cholesterol response to a high cholesterol diet, cholesterol concentrations were checked every two months. […]
(§2) Specimens from the brains of 29 pigs, included 3 untreated controls; 13 DMHC and 13 DMHC treated with Darapladib (Rx), were embedded in paraffin wax. Each brain specimen was serially sectioned, and the first section representing each sample was stained with Hematoxylin and Eosin (H+E) which permitted cortical from non-cortical regions based on differential staining to be determined. Full (large) face tissue blocks were used throughout this study in an effort to maximize the amount of tissue analyzed so as to favor subsequent quantification. The total areas (in sq. mm) of cortical and non-cortical brain tissue in each section were measured in H+E− stained sections using computer-assisted image analysis and Image Pro Plus software. […]

[2] = test system: DMHC pigs (Abeta42 in cerebral cortex); test: Abeta42 amount and distribution in cerebral cortex of DMHC pig brain; assay type: in vivo; conditions: 10 mg/kg/day for 24 weeks
Experimental: as §1, §2

[3] = test system: DM/HC pigs; test: Behavioural observation of DM/HC pigs; assay type: in vivo, pig; conditions: 10 mg/kg/day, vs DM/HC control animals
Experimental: Yorkshire domestic farm pigs (˜25-35 kg; Archer Farms) were induced for diabetes with a single intravenous injection of 125 mg/kg streptozotocin (Mohler et al., 2008). Blood glucose and cholesterol were closely monitored. Three days after diabetes induction, a hyperlipidemic diet was used to achieve hypercholesterolemia with serum cholesterol concentrations clamped between 400 and 800 mg/dl. Because pigs have a variable serum cholesterol response to a high cholesterol diet, cholesterol concentrations were checked every two months. One month after DMHC induction, pigs were randomly assigned into either a control group or a treatment group receiving 10 mg/kg/d orally of the selective Lp-PLA2 inhibitor Darapladib (GlaxoSmithKline). Pigs were sacrificed after 28 weeks after induction (that is, 24 weeks after initiation of treatment). At the time of completion of the study, there were 17 pigs in the control group and 20 in the Darapladib-treated group, as three pigs in the control group were excluded from analysis because of persistently elevated cholesterol levels. […] The specific experiment was published (Wilensky et al., 2008) but no vascular leak data was presented in that publication.

[4] = target: Lp-PLA2 (Oryctolagus cuniculus, UniProt G1SE06); conditions: rabbits on cholesterol/copper diet, 10 mg/kg daily s.c. from day 1-72
Experimental: 3-4 month SPF male New Zealand White rabbits were purchased from Covance (Denver, Pa.), individually housed and had ad libitum access to rabbit chow and water on a 12/12 h light/dark cycle. Experiments were repeated twice with animals arriving 3 weeks apart. Rabbits were randomly assigned to five treatment groups with a sample size of 8 animals per group. 32 Rabbits were placed on cholesterol/copper diet and 8 rabbits fed normal chow. Cholesterol/copper diet consisted of 160 g per day of commercially produced diet (Purina Mills High Fibre Diet) supplemented or not with 2% cholesterol. Copper sulphate (0.12 mg/l) was added to drinking water of rabbits assigned the cholesterol supplemented diet.
Animals were weighed and drug or vehicle administration delivered at 3 ml/kg to affect a 10 mg/kg dose by subcutaneous injection in the neck fold.
Six groups of animals consisting of 8 animals were assigned to the following treatment groups. Groups 1-5 were maintained on the cholesterol supplemented diet with copper sulphate in the drinking water.
Lp-PLA2 activity was measured in plasma samples collected at days 1, 29, 32 and 72 using proprietary GSK techniques.

[5] = test system: STZ-induced diabetic SD rats; conditions: first study, 10 mg/kg/d i.p. from day 4
Experimental: Male SD rats, 6 weeks of age and weighing 180-200 g, were used in this study; the rats had free access to food and water and were maintained in cages in an environmentally controlled room with a 12 hour light-dark cycle. Diabetes was induced by following dosing of animals with streptozotocin (50 mg/kg/day dosed i.p. for each of the first 3 days of the protocol) in 10 mM sodium citrate-buffer pH 4.6. […] Animals which maintained an elevated blood glucose level of over 9 mM were deemed diabetic.
The retinal images were scanned by a commercially available Fourier-domain OCT (RTVue-100; version 2.1; Optovue, Inc., California, USA). Super-luminescent diode light source with a central wavelength of 840 nm and a full bandwidth of 50 nm was adapted to the OCT. The retinal thickness was accessed by the automatic software of RTVue scanner with manual adjusting. The retinal thickness was defined from layer of retinal pigment eitheluim (RPE) to retinal ganglion cell layer (GCL).
Two separate studies were conducted. Retinal images were taken on experimental day 4, 10, 13, 17, 22, 28 and 31 for the second study and day 0, 4, 7, 10, 14 and 18 for the first study. Animals were anesthetized by inhalation of 5% isoflourane and pupils were diluted with 1% tropicamide and 1% phenylephrine. Prior to OCT analysis animals were fixed on a support frame and the eye to be imaged positioned to align with the center of the scan beam perpendicular to the fundus. […] After imaging, the animals were recovered and returned to cages. Retinal thickness from six time points of OCT measurement were analyzed by repeated measures analysis of variance (ANOVA) using Prism software. […] All data were expressed as mean value±SEM.

[6] = test system: rat Lp-PLA2 enzyme; conditions: compared with Lp-PLA2 inhibitor '495

Sequence of Lp-PLA2 (G1SE06 22-423): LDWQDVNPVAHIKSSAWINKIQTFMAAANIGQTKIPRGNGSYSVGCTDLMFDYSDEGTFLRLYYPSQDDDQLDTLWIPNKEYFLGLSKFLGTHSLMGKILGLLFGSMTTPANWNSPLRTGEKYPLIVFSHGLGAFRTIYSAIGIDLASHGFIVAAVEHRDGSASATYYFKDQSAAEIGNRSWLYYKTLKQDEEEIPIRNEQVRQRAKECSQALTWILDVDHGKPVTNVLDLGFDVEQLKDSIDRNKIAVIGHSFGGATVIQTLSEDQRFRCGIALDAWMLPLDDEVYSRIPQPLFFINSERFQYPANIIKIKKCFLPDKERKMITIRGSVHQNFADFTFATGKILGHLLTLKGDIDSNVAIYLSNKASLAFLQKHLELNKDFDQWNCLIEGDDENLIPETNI

Row | SMILES | density of arteriolar leaks in the cortex (number of leaking arterioles per sq mm) [1] | extent of vascular (BBB) leaks ([1]; 10 mg/kg/day) | total amount of Abeta42 (Abeta42 load) in the cerebral cortex [2] | density of Abeta42-positive neurons in cerebral cortex ([2]; entire brain) | general wellness (activity and alertness) [3] | plasma Lp-PLA2 activity [4] | STZ-induced retinal thinning (neuroretinal thickness by OCT) [5] | potency as inhibitor of rat Lp-PLA2 enzyme, relative [6]
1 | CCN(CC)CCN(Cc1ccc(-c2ccc(C(F)(F)F)cc2)cc1)C(=O)Cn1c(SCc2ccc(F)cc2)nc(=O)c2c1CCC2 [Darapladib, N-[2-(diethylamino)ethyl]-2-[[(4-fluorophenyl)methyl]thio]-4,5,6,7-tetrahydro-4-oxo-N-[[4′-(trifluoromethyl)[1,1′-biphenyl]-4-yl]methyl]-1H-cyclopentapyrimidine-1-acetamide] | reduced somewhat | effective at reducing the extent of leaks in all vessel types; also recorded: highly efficacious effect in reducing the permeability of the BBB; also recorded: somewhat reduced | reduced amyloid deposition; also recorded: reduced the total amount of Abeta42 | reduction in the number (density) of Abeta42 peptide positive neurones; also recorded: levels comparable to controls | general wellness effect (increased activity and alertness) |  |  | 
2 | CCN1CCC(N(Cc2ccc(-c3ccc(Cl)cc3)cc2)C(=O)Cn2c(CCc3cccc(F)c3F)nc(=O)c3ccccc32)CC1.O=C(O)C(O)C(O)C(=O)O [Lp-PLA2 inhibitor '859, N-(1-ethylpiperidin-4-yl)-2-(2-(2-(2,3-difluorophenyl)-ethyl)-4-oxo-4H-quninazolin-1-yl)-N-(4′-chloro-biphenyl-4-ylmethyl)acetamide bitartrate] |  |  |  |  |  | significantly lower levels of Lp-PLA2 activity | not statistically significantly different from vehicle only treated animals | significantly less potent inhibitor
